# Target: Human recombinant PDE4 (Genbank accession no NM—006203) (Homo sapiens, UniProt Q08499)
# Assay: PDE4 assay (SPA, cleavage of cAMP)
# Assay type: biochemical
# Details: 1 hour incubation, test compound up to 10 μM, cAMP 1×10^−5M, read-out: PDE4 IC50 range
# Experimental: Human recombinant PDE4 (Genbank accession no NM_006203) was incubated for 1 hour with the test compound at concentrations up to 10 μM, with cAMP (1×10^−5M), and with a low amount (0.021 MBq) of radioactively labelled cAMP. At the end of the incubation, the cleavage of the substrate was evaluated by the binding of the AMP product to SPA beads, which generate chemoluminescence when bound to the radioactive tracer. The AMP product inhibited the binding of the radioactive tracer to the beads, and the luminescent signal was competed.
# The results were calculated as the molar concentrations resulting in 50% inhibition of the substrate cleavage compared to controls samples, and are expressed as a range of IC50 (M).
# The compounds of the present invention were tested in the PDE4 assay.
# Chain of Human recombinant PDE4 (Genbank accession no NM—006203) (Q08499 1-673 isoform Q08499-2): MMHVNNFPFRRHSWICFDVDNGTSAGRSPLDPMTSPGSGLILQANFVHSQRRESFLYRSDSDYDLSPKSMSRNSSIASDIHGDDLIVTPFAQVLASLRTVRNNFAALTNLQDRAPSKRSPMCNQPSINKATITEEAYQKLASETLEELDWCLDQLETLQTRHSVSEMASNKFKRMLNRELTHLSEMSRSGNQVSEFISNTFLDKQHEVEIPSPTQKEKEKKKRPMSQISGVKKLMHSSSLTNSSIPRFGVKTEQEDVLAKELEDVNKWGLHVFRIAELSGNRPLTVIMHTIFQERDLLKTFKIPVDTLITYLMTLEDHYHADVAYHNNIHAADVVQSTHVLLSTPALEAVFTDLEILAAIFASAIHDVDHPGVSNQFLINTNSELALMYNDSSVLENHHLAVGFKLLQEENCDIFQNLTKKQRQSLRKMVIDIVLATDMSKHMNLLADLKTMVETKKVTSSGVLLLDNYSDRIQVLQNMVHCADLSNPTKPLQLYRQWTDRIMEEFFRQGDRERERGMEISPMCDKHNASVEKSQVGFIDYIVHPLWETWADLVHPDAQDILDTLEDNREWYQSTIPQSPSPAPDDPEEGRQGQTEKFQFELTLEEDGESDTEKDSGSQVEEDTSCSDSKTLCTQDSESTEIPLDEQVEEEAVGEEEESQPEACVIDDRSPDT
row,Structure (SMILES),IC50 [µM]
1,"COc1ccc(-c2ccc3c(c2)CCC3=O)c(OCCC(C)C)c1OC [Compound 120, 5-[3,4-Dimethoxy-2-(3-methyl-butoxy)-phenyl]-indan-1-one]",< 0.1
2,"COc1ccc(-c2ccc3c(c2)CCC3=O)c(OCC(C)C)c1OC [Compound 169, 5-(2-Isobutoxy-3,4-dimethoxy-phenyl)-indan-1-one]",< 0.1
3,"CCCNC(=O)C(C)(C)COc1c(-c2ccc3c(c2)CCC3=O)ccc(OC)c1OC [Compound 209, 3-[2,3-Dimethoxy-6-(1-oxo-indan-5-yl)-phenoxy]-2,2-dimethyl-N-propyl-propionamide]",0.1 to 0.5
4,"CCNC(=O)OCC1(COc2c(-c3ccc4c(c3)CNC4=O)ccc(OC)c2OC)COC1 [Compound 214, Ethyl-carbamic acid 3-[2,3-dimethoxy-6-(1-oxo-2,3-dihydro-1H-isoindol-5-yl)-phenoxymethyl]-oxetan-3-ylmethyl ester]",≥ 0.5
5,"COc1ccc(-c2ccc3c(c2)COC3=O)c(OCCC(C)C)c1OC [Compound 131, 5-[3,4-Dimethoxy-2-(3-methyl-butoxy)-phenyl]-3H-isobenzofuran-1-one]",< 0.1
6,"COc1ccc(-c2ccc3c(c2)CCC3=O)c(OCC(C)(C)C)c1OC [Compound 121, 5-[2-(2,2-Dimethyl-propoxy)-3,4-dimethoxy-phenyl]-indan-1-one]",< 0.1
7,"COc1ccc(-c2cccc3c2CCC3=O)c(OCC2(CNC(=O)OC(C)C)CC2)c1OC [Compound 187, {1-[2,3-Dimethoxy-6-(1-oxo-indan-4-yl)-phenoxymethyl]-cyclopropylmethyl}-carbamic Acid Isopropyl Ester]",< 0.1
8,"COc1ccc(-c2cccc3c2COC3=O)c(OCC2(CO)COC2)c1OC [Compound 119, 4-[2-(3-Hydroxymethyl-oxetan-3-ylmethoxy)-3,4-dimethoxy-phenyl]-3H-isobenzofuran-1-one]",0.1 to 0.5
9,"COc1ccc(-c2ccc3c(c2)CNC3=O)c(OCC(C)(C)C)c1OC [Compound 148, 5-[2-(2,2-Dimethyl-propoxy)-3,4-dimethoxy-phenyl]-2,3-dihydro-isoindol-1-one]",< 0.1
10,"COc1ccc(-c2cccc3c2CCC3=O)c(OCC2(C)COC2)c1OC [Compound 163, 4-[3,4-Dimethoxy-2-(3-methyl-oxetan-3-ylmethoxy)-phenyl]-indan-1-one]",< 0.1
11,"COc1ccc(-c2ccc3c(c2)COC3=O)c(OCC(C)(C)CO)c1OC [Compound 137, 5-[2(3-Hydroxy-2,2-dimethyl-propoxy)-3,4-dimethoxy-phenyl]-3H-isobenzofuran-1-one]",< 0.1
12,"COc1ccc(-c2ccc3c(c2)CCC3=O)c(OCC(C)(C)C(=O)N(C)C)c1OC [Compound 207, 3-[2,3-Dimethoxy-6-(1-oxo-indan-5-yl)-phenoxy]-2,2,N,N-tetramethyl-propionamide]",0.1 to 0.5
13,"COc1ccc(-c2ccc3c(c2)CN(C)C3=O)c(OCC(C)C)c1OC [Compound 172, 5-(2-Isobutoxy-3,4-dimethoxy-phenyl)-2-methyl-2,3-dihydro-isoindol-1-one]",≥ 0.5
14,"CCNC(=O)OCC1(COc2c(-c3ccc4c(c3)COC4=O)ccc(OC)c2OC)COC1 [Compound 213, Ethyl-carbamic acid 3-[2,3-dimethoxy-6-(1-oxo-1,3-dihydro-isobenzofuran-5-yl)-phenoxymethyl]-oxetan-3-ylmethyl ester]",< 0.1
15,"COc1ccc(-c2ccc3c(c2)CNC3=O)c(OCc2cccc(S(C)(=O)=O)c2)c1OC [Compound 160, 5-[2-(3-Methanesulfonyl-benzyloxy)-3,4-dimethoxy-phenyl]-2,3-dihydro-isoindol-1-one]",< 0.1
16,"CCNC(=O)C(C)(C)COc1c(-c2cccc3c2CCC3=O)ccc(OC)c1OC [Compound 201, 3-[2,3-Dimethoxy-6-(1-oxo-indan-4-yl)-phenoxy]-N-ethyl-2,2-dimethyl-propionamide]",< 0.1
17,"COCC1(COc2c(-c3ccc4c(c3)CNC4=O)ccc(OC)c2OC)COC1 [Compound 216, 5-[3,4-Dimethoxy-2-(3-methoxymethyl-oxetan-3-ylmethoxy)-phenyl]-2,3-dihydro-isoindol-1-one]",< 0.1
18,"COCCOC(=O)NCC1(COc2c(-c3cccc4c3CCC4=O)ccc(OC)c2OC)CC1 [Compound 188, {1-[2,3-Dimethoxy-6-(1-oxo-indan-4-yl)-phenoxymethyl]-cyclopropylmethyl}-carbamic acid 2-methoxy-ethyl Ester]",< 0.1
19,"CCCC(=O)NCC1(COc2c(-c3cccc4c3CCC4=O)ccc(OC)c2OC)COC1 [Compound 194, N-{3-[2,3-Dimethoxy-6-(1-oxo-indan-4-yl)-phenoxymethyl]-oxetan-3-ylmethyl}-butyramide]",< 0.1
20,"COc1ccc(-c2cccc3c2CCC3=O)c(OCC(C)C)c1OC [Compound 166, 4-(2-Isobutoxy-3,4-dimethoxy-phenyl)-indan-1-one]",< 0.1
21,"COc1ccc(-c2ccc3c(c2)CNC3=O)c(OCC2(CO)COC2)c1OC [Compound 151, 5-[2-(3-Hydroxymethyl-oxetan-3-ylmethoxy)-3,4-dimethoxy-phenyl]-2,3-dihydro-isoindol-1-one]",0.1 to 0.5
22,"COc1ccc(-c2cccc3c2CCC3=O)c(OCC2(CNC(=O)C(C)C)COC2)c1OC [Compound 193, N-{3-[2,3-Dimethoxy-6-(1-oxo-indan-4-yl)-phenoxymethyl]-oxetan-3-ylmethyl}-isobutyramide]",< 0.1
23,"CCNC(=O)OCC(C)(C)COc1c(-c2ccc3c(c2)CNC3=O)ccc(OC)c1OC [Compound 212, Ethyl-carbamic acid 3-[2,3-dimethoxy-6-(1-oxo-2,3-dihydro-1H-isoindol-5-yl)-phenoxy]-2,2-dimethyl-propyl ester]",≥ 0.5
24,"COc1ccc(-c2ccc3c(c2)COC3=O)c(OCC(C)(C)C)c1OC [Compound 132, 5-[2-(2,2-Dimethyl-propoxy)-3,4-dimethoxy-phenyl]-3H-isobenzofuran-1-one]",< 0.1

# The remaining lines, values ahead:
row,IC50 [µM],Structure (SMILES)
1,< 0.1,"COc1ccc(-c2ccc3c(c2)COC3=O)c(OCc2ccc(C(N)=O)cc2)c1OC [Compound 136, 4-[2,3-Dimethoxy-6-(1-oxo-1,3-dihydro-isobenzofuran-5-yl)-phenoxymethyl]-benzamide]"
2,< 0.1,"CCNC(=O)OCC(C)(C)COc1c(-c2cccc3c2CCC3=O)ccc(OC)c1OC [Compound 211, Ethyl-carbamic acid 3-[2,3-dimethoxy-6-(1-oxo-indan-4-yl)-phenoxy]-2,2-dimethyl-propyl ester]"
3,< 0.1,"COc1ccc(-c2cccc3c2COC3=O)c(OCc2ccc(C(=O)N(C)C)cc2)c1OC [Compound 118, 4-[2,3-Dimethoxy-6-(1-oxo-1,3-dihydro-isobenzofuran-4-yl)-phenoxymethyl]-N,N-dimethyl-benzamide]"
4,< 0.1,"COc1ccc(-c2ccc3c(c2)COC3=O)c(OCc2cccc(C(=O)N(C)C)c2)c1OC [Compound 140, 3-[2,3-Dimethoxy-6-(1-oxo-1,3-dihydro-isobenzofuran-5-yl)-phenoxymethyl]-N,N-dimethyl-benzamide]"
5,< 0.1,"COc1ccc(-c2ccc3c(c2)CCC3=O)c(OCC(C)(C)CO)c1OC [Compound 125, 5-[2-(3-Hydroxy-2,2-dimethyl-propoxy)-3,4-dimethoxy-phenyl]-indan-1-one]"
6,< 0.1,"COc1ccc(-c2cccc3c2COC3=O)c(OCc2ccc(C(N)=O)cc2)c1OC [Compound 116, 4-[2,3-Dimethoxy-6-(1-oxo-1,3-dihydro-isobenzofuran-4-yl)-phenoxymethyl]-benzamide]"
7,< 0.1,"COCC(C)(C)COc1c(-c2ccc3c(c2)CNC3=O)ccc(OC)c1OC [Compound 219, 5-[3,4-Dimethoxy-2-(3-methoxy-2,2-dimethyl-propoxy)-phenyl]-2,3-dihydro-isoindol-1-one]"
8,< 0.1,"COc1ccc(-c2cccc3c2CCC3=O)c(OCc2ccc(C(N)=O)cc2)c1OC [Compound 106, 4-[2,3-Dimethoxy-6-(1-oxo-indan-4-yl)-phenoxymethyl]-benzamide]"
9,< 0.1,"COc1ccc(-c2ccc3c(c2)COC3=O)c(OCc2ccc(S(C)(=O)=O)cc2)c1OC [Compound 142, 5-[2-(4-Methanesulfonyl-benzyloxy)-3,4-dimethoxy-phenyl]-3H-isobenzofuran-1-one]"
10,< 0.1,"COCC(C)(C)COc1c(-c2cccc3c2CCC3=O)ccc(OC)c1OC [Compound 217, 4-[3,4-Dimethoxy-2-(3-methoxy-2,2-dimethyl-propoxy)-phenyl]-indan-1-one]"
11,< 0.1,"COc1ccc(-c2ccc3c(c2)COC3=O)c(OCc2cccc(S(=O)(=O)N(C)C)c2)c1OC [Compound 145, 3-[2,3-Dimethoxy-6-(1-oxo-1,3-dihydro-isobenzofuran-5-yl)-phenoxymethyl]-N,N-dimethyl-benzenesulfonamide]"
12,< 0.1,"COc1ccc(-c2ccc3c(c2)COC3=O)c(OCC2CCC2)c1OC [Compound 133, 5-(2-Cyclobutylmethoxy-3,4-dimethoxy-phenyl)-3H-isobenzofuran-1-one]"
13,< 0.1,"COc1ccc(-c2cccc3c2CCC3=O)c(OCC(C)(C)CO)c1OC [Compound 107, 4-[2-(3-Hydroxy-2,2-dimethyl-propoxy)-3,4-dimethoxy-phenyl]-indan-1-one]"
14,< 0.1,"CNC(=O)C(C)(C)COc1c(-c2cccc3c2CCC3=O)ccc(OC)c1OC [Compound 200, 3-[2,3-Dimethoxy-6-(1-oxo-indan-4-yl)-phenoxy]-2,2,N-trimethyl-propionamide]"
15,< 0.1,"COc1ccc(-c2ccc3c(c2)COC3=O)c(OCc2ccc(S(N)(=O)=O)cc2)c1OC [Compound 141, 4-[2,3-Dimethoxy-6-(1-oxo-1,3-dihydro-isobenzofuran-5-yl)-phenoxymethyl]-benzenesulfonamide]"

# From US9051290B2, “Biaryl phosphodiesterase inhibitors” (LEO PHARMA A/S, priority 2010, dated 2015)
